Experiments:
[1] = tested on: depressive-like behavior induced by Aβ; details: through the increased levels of NA; no reference given; cited from earlier work
Aβ-treated rats = tested on: Aβ-treated rats; set-up: method as in PMID 28499898; details: acute treatment; cited from earlier work
glutamate (GLU) = assay: Glutamate quantification in PFC and HIPP by HPLC with fluorescence detection; format: in vivo; details: mice 7 days after icv Aβ 4 µM, sublingual AKBA 5 mg/kg 30 min earlier
Procedure: (§1) All behavioral experiments were conducted at 5 or 30 min after sublingual administrations of AKBA or vehicle in either SHAM or Aβ-treated mice. Based upon behavioral outcomes observed, neurochemical and biochemical quantifications were performed 30 min after AKBA or vehicle administration in either SHAM or Aβ-treated mice.
(§2) Anesthetized animals were sacrificed by cervical dislocation. Brains were immediately removed and kept on ice for dissection of PFC and HIPP, according to the atlas of Paxinos and Franklin. Tissues were frozen and stored at −80 °C until analyses were carried out. Samples (PFC and HIPP) were homogenized (1:10 w/v) at 4 °C using a PBS buffer containing a 1:100 protease and phosphatase inhibitor cocktail (HALT inhibitors, Thermo Fisher Scientific, Cleveland, OH, USA) for biochemical analyses or perchloric acid 0.1 M for neurochemical analyses. Homogenates were centrifuged at 13,000× g at 4 °C for 20 min, and supernatants were used for further determinations.
(§3) 5-HT, noradrenaline (NA), and KYN levels were measured in the PFC and HIPP of mice by HPLC coupled with an electrochemical detector (Ultimate ECD, Thermo Scientific Dionex, Milan, Italy) as already reported. Separation was performed by a LC18 reverse phase column (Kinetex, 150 mm × 3.0 mm, ODS 5 μm; Phenomenex, Castel Maggiore-Bologna, Italy). The detection was accomplished by a thin layer amperometric cell (Thermo Scientific Dionex, Milan, Italy) with a 5 mm diameter glassy carbon electrode at a working potential of 400 mV (5-HT and NA) or 0.750 mV (KYN) vs. Pd. The mobile phase consisted of an aqueous buffer containing 75 mM NaH2PO4, 1.7 mM octane sulfonic acid, 0.3 mM EDTA, and acetonitrile 10%, buffered at pH 3.0. […] GLU concentrations were determined by HPLC coupled with fluorescence detection (emission length 460 nm; excitation length 340 nm), as previously published. […] Results were analyzed by Borwin software (version 1.50; Jasco, Cremella, Italy) and the amino acid concentration was expressed as µM. All data were normalized for total area weight and were expressed as concentration/mg of tissue.

5-HT = 5-HT quantification in PFC and HIPP by HPLC with electrochemical detection; format: in vivo; details: mice 7 days after icv Aβ 4 µM, sublingual AKBA 5 mg/kg 30 min earlier
Procedure: as §1, §2
(§4) 5-HT, noradrenaline (NA), and KYN levels were measured in the PFC and HIPP of mice by HPLC coupled with an electrochemical detector (Ultimate ECD, Thermo Scientific Dionex, Milan, Italy) as already reported. Separation was performed by a LC18 reverse phase column (Kinetex, 150 mm × 3.0 mm, ODS 5 μm; Phenomenex, Castel Maggiore-Bologna, Italy). The detection was accomplished by a thin layer amperometric cell (Thermo Scientific Dionex, Milan, Italy) with a 5 mm diameter glassy carbon electrode at a working potential of 400 mV (5-HT and NA) or 0.750 mV (KYN) vs. Pd. The mobile phase consisted of an aqueous buffer containing 75 mM NaH2PO4, 1.7 mM octane sulfonic acid, 0.3 mM EDTA, and acetonitrile 10%, buffered at pH 3.0. The flow rate was kept at 0.7 mL·min-1 by an isocratic pump (Shimadzu LC-10 AD, Kyoto, Japan). Data acquisition and integration were performed by using Chromeleon software (version 6.80, Thermo Scientific Dionex, Milan, Italy). GLU concentrations were determined by HPLC coupled with fluorescence detection (emission length 460 nm; excitation length 340 nm), as previously published. Analyses were carried out using an LC18 reverse phase column (Kinetex, 150 mm × 3.0 mm, ODS 5 μm; Phenomenex, Castel Maggiore, Bologna, Italy) and detection was accomplished by pre-column derivatization with ophthalaldehyde/mercaptopropionic acid. The mobile phase consisted of a 50 mM sodium acetate buffer, at pH 6.95, with gradient methanol increasing linearly from 2 to 30% (v/v) over a 40 min run. […] Results were analyzed by Borwin software (version 1.50; Jasco, Cremella, Italy) and the amino acid concentration was expressed as µM. All data were normalized for total area weight and were expressed as concentration/mg of tissue.

Aβ-treated mice [2] = assay: Tail suspension test in Aβ-treated mice; format: in vivo; details: mice 7 days after icv Aβ 4 µM, sublingual AKBA 5 mg/kg 30 min before, Aβ vs SHAM
NF-kB p65 = assay: Western blotting quantification of NF-kB p65 in PFC and HIPP; format: in vivo; details: mice 7 days after icv Aβ 4 µM, sublingual AKBA 5 mg/kg 30 min earlier
Procedure: as §1, §2
(§5) The total amount of proteins was measured in homogenates by using Pierce BCA Assay (Thermo Fisher Scientific, Cleveland, OH, USA). Forty µg of the total lysate protein were separated by SDS-PAGE precast gels (Bio-Rad Laboratories Inc., Segrate (MI), Italy), transferred onto nitrocellulose membranes (Bio-Rad Laboratories Inc, Segrate (MI), Italy) and then blocked for 1 h in blocking buffer (SigmaAldrich, Milan, Italy). Rabbit polyclonal antibody against GFAP (Dako Products, USA; 1:2000), rabbit monoclonal antibody against CD11b (Abcam, Cambridge, MA, USA; ab133357, 1:1000) and mouse monoclonal antibody against NF-kB p65 (Santa Cruz Biotechnology, Dallas, Texas, USA; 1:2000) were used to incubate the membranes overnight at 4 °C. After HRP-conjugated specific antibody incubation, ECL reagent (Bio-Rad Laboratories Inc., Segrate (MI), Italy) was added to the immune complex and chemiluminescence was detected by ChemiDoc MP system (Bio-Rad Laboratories Inc., Segrate (MI), Italy). Optical densities of the bands were measured using ImageJ software (http://rsb.info.nih.gov/ij/ accessed on 15 March 2021) and normalized against bands relative to β-actin (1:5000, Abcam, Cambridge, UK).

kynurenine (KYN) = assay: Kynurenine quantification in PFC and HIPP by HPLC with electrochemical detection; format: in vivo; details: mice 7 days after icv Aβ 4 µM, sublingual AKBA 5 mg/kg 30 min earlier
Procedure: as §1, §2, §4

noradrenaline (NA) = assay: Noradrenaline quantification in PFC and HIPP by HPLC with electrochemical detection; format: in vivo; details: HIPP, mice 7 days after icv Aβ 4 µM; sublingual AKBA 5 mg/kg 30 min earlier
Procedure: as §1, §2, §3

CD11b = assay: Western blotting quantification of CD11b in PFC and HIPP; format: in vivo; details: mice 7 days after icv Aβ 4 µM, sublingual AKBA 5 mg/kg 30 min earlier
Procedure: as §1, §2, §5

Aβ-treated mice [3] = assay: Splash test in Aβ-treated mice; format: in vivo; details: mice 7 days after icv Aβ 4 µM; sublingual AKBA 5 mg/kg 30 min before testing; Aβ vs SHAM, Aβ+AKBA vs Aβ
GFAP = assay: Western blotting quantification of GFAP in PFC and HIPP; format: in vivo; details: mice 7 days after icv Aβ 4 µM, sublingual AKBA 5 mg/kg 30 min earlier
Procedure: as §1, §2, §5

For CNCCC(Oc1ccc(C(F)(F)F)cc1)c1ccccc1 (stereo not drawn) [fluoxetine], the “Depressive-like behavior induced by Aβ” value [1] is listed as “reduced the depressive-like behavior”.
For CNC1(c2ccccc2Cl)CCCCC1=O (stereo not drawn) [ketamine], the “Pro-depressive-like effect of Aβ in rats” value (Aβ-treated rats) is given as “able to revert”.
With “Aβ: soluble amyloid beta 1-42 peptide (Tocris), injected icv at 4 µM to evoke a depressive-like phenotype [reference compound]” the “GLU levels in the HIPP” value (glutamate (GLU); HIPP) was “significantly increased hippocampal GLU levels”, the “GLU levels in the PFC” value (glutamate (GLU); PFC) was “increased GLU levels compared to SHAM mice” and the “5-HT levels in the HIPP” value (5-HT; HIPP) was “no differences among experimental groups”. The “5-HT levels in the PFC” value (5-HT; PFC) was “significant decrease in PFC”, the “Immobility time in the tail suspension test” value (Aβ-treated mice [2]) was “significant increase in the immobility time” and the “NF-kB p65 content in the HIPP (optical density normalized to actin)” value (NF-kB p65; HIPP) was “significantly increased the levels of this transcription factor”. For the same molecule, the “NF-kB p65 levels in the PFC (optical density normalized to actin)” value (NF-kB p65; PFC) was “significantly increased cortical NF-kB levels”, the “KYN levels in the HIPP” value (kynurenine (KYN); HIPP) was “increase in KYN levels induced by the peptide” and the “KYN levels in the PFC” value (kynurenine (KYN); PFC) was “significant increase in cortical KYN levels”. For the same molecule, the “NA levels in the HIPP” value (noradrenaline (NA)) was “significant increase in catecholamine levels”, the “CD11b levels in the HIPP (optical density normalized to actin)” value (CD11b; HIPP) was “significant enhanced hippocampal levels” and the “CD11b content in the PFC (optical density normalized to actin)” value (CD11b; PFC) was “no differences were found among experimental groups”. The “Latency to leak in the splash test” value (Aβ-treated mice [3]) was “significant increase in latency to leak”, the “Time spent performing self-care in the splash test” value (Aβ-treated mice [3]) was “reduction in time spent performing self-care” and the “GFAP levels in the HIPP (optical density normalized to actin)” value (GFAP; HIPP) was “significant increase in hippocampal GFAP levels”. The “GFAP levels in the PFC (optical density normalized to actin)” value (GFAP; PFC) was “significant increase in GFAP levels”.
